Tests used:
[1] = system: HuO9; assay: cells; assay type: functional, cell-based, Homo sapiens; details: Homo sapiens, HuO9;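 further: growth inhibition of HuO9 cells, read out with a cell viability assay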
Description: SANGER: Inhibition of human HuO9 cell growth in a cell viability assay.

[2] = system: NCI-H2029; assay: cells; assay type: functional, cell-based; details: Homo sapiens;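 further: Read-out is a viability assay on the cultured cells, and IC50 is the concentration that suppresses cell growth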
Description: SANGER: Inhibition of human NCI-H2029 cell growth in a cell viability assay.

[3] = system: NCI-H1048; assay: cells; assay type: functional, cell-based; details: Homo sapiens;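 further: growth inhibition of human NCI-H1048 cells, read out with a cell viability assay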
Description: SANGER: Inhibition of human NCI-H1048 cell growth in a cell viability assay.

[4] = system: EW-22; assay: cells; assay type: functional, cell-based; details: Homo sapiens;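 further: growth inhibition of the EW-22 cell line, measured with a cell viability readout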
Description: SANGER: Inhibition of human EW-22 cell growth in a cell viability assay.

[5] = system: NCI-H630; assay: cells; assay type: functional, cell-based, Homo sapiens; details: Homo sapiens, NCI-H630;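 further: growth inhibition of NCI-H630 cells, read out with a cell viability assay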
Description: SANGER: Inhibition of human NCI-H630 cell growth in a cell viability assay.

[6] = system: H-EMC-SS; assay: cells; assay type: functional, cell-based; details: Homo sapiens
Description: SANGER: Inhibition of human H-EMC-SS cell growth in a cell viability assay.

[7] = system: NBsusSR; assay: cells; assay type: functional, cell-based; details: Homo sapiens;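 further: growth inhibition of the human cell line, read out with a cell viability assay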
Description: SANGER: Inhibition of human NBsusSR cell growth in a cell viability assay.

[8] = system: NCI-H2291; assay: cells; assay type: functional, cell-based; details: Homo sapiens
Description: SANGER: Inhibition of human NCI-H2291 cell growth in a cell viability assay.

[9] = system: NCI-H522; assay: cells; assay type: functional, cell-based, Homo sapiens; details: Homo sapiens, NCI-H522;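 further: cell viability assay measuring growth inhibition of human NCI-H522 cells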
Description: SANGER: Inhibition of human NCI-H522 cell growth in a cell viability assay.

[10] = system: SJRH30; assay: cells; assay type: functional, cell-based; details: Homo sapiens;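 further: growth inhibition of human SJRH30 cells, read out with a cell viability assay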
Description: SANGER: Inhibition of human SJRH30 cell growth in a cell viability assay.

[11] = system: CHP-134; assay: SANGER: Inhibition of human CHP-134 cell growth in a cell viability assay.; assay type: functional, cell-based
[12] = system: G-361; assay: cells; assay type: functional, cell-based, Homo sapiens; details: Homo sapiens, G-361
[13] = system: RT-4; assay: SANGER: Inhibition of human RT4 cell growth in a cell viability assay.; assay type: functional, cell-based; details: Homo sapiens, RT-4
[14] = system: LU-165; assay: cells; assay type: functional, cell-based; details: Homo sapiens
Description: SANGER: Inhibition of human LU-165 cell growth in a cell viability assay.

[15] = system: EB-3; assay: cells; assay type: functional, cell-based; details: Homo sapiens;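 further: human EB-3 cells, growth inhibition read out via a cell viability assay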
Description: SANGER: Inhibition of human EB-3 cell growth in a cell viability assay.

[16] = system: MONO-MAC-6; assay: cells; assay type: functional, cell-based; details: Homo sapiens;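 further: cell viability assay measuring growth inhibition of human MONO-MAC-6 cells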
Description: SANGER: Inhibition of human MONO-MAC-6 cell growth in a cell viability assay.

[17] = system: PLC-PRF-5; assay: cells; assay type: functional, cell-based; details: Homo sapiens;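 further: growth inhibition of human PLC-PRF-5 cells, read out with a viability assay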
Description: SANGER: Inhibition of human PLC-PRF-5 cell growth in a cell viability assay.

[18] = system: SK-CO-1; assay: cells; assay type: functional, cell-based; details: Homo sapiens;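 further: growth inhibition of SK-CO-1 cells, determined by a viability readout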
Description: SANGER: Inhibition of human SK-CO-1 cell growth in a cell viability assay.

[19] = system: MES-SA; assay: cells; assay type: functional, cell-based, Homo sapiens; details: Homo sapiens, MES-SA;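 further: growth inhibition of human MES-SA cells, read out with a cell viability assay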
Description: SANGER: Inhibition of human MES-SA cell growth in a cell viability assay.

[20] = system: SR; assay: cells; assay type: functional, cell-based; details: Homo sapiens
Description: SANGER: Inhibition of human SR cell growth in a cell viability assay.

[21] = system: NCI-H2171; assay: cells; assay type: functional, cell-based; details: Homo sapiens;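 further: growth inhibition of human NCI-H2171 cells, read out by a cell viability assay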
Description: SANGER: Inhibition of human NCI-H2171 cell growth in a cell viability assay.

[22] = system: TT; assay: cells; assay type: functional, cell-based; details: Homo sapiens
Description: SANGER: Inhibition of human TT cell growth in a cell viability assay.

[23] = system: NCI-H2141; assay: cells; assay type: functional, cell-based; details: Homo sapiens;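 further: growth inhibition of human NCI-H2141 cells, read out with a cell viability assay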
Description: SANGER: Inhibition of human NCI-H2141 cell growth in a cell viability assay.

[24] = system: SNG-M; assay: cells; assay type: functional, cell-based; details: Homo sapiens
Description: SANGER: Inhibition of human SNG-M cell growth in a cell viability assay.

[25] = system: LOUCY; assay: cells; assay type: functional, cell-based; details: Homo sapiens;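 further: growth inhibition of human LOUCY cells, read out with a cell viability assay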
Description: SANGER: Inhibition of human LOUCY cell growth in a cell viability assay.

[26] = system: EVSA-T; assay: cells; assay type: functional, cell-based, Homo sapiens; details: Homo sapiens, EVSA-T;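 further: growth inhibition of EVSA-T cells, read out with a cell viability assay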
Description: SANGER: Inhibition of human EVSA-T cell growth in a cell viability assay.

[27] = system: C-4-II; assay: SANGER: Inhibition of human C-4-II cell growth in a cell viability assay.; assay type: functional, cell-based
[28] = system: DMS-53; assay: cells; assay type: functional, cell-based, Homo sapiens; details: Homo sapiens, DMS-53;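 further: cell viability assay measuring growth inhibition of human DMS-53 cells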
Description: SANGER: Inhibition of human DMS-53 cell growth in a cell viability assay.

[29] = system: TE-15; assay: cells; assay type: functional, cell-based; details: Homo sapiens;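 further: cell viability readout of growth inhibition in TE-15 cells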
Description: SANGER: Inhibition of human TE-15 cell growth in a cell viability assay.

[30] = system: TE-441-T; assay: cells; assay type: functional, cell-based; details: Homo sapiens
Description: SANGER: Inhibition of human TE-441-T cell growth in a cell viability assay.

[31] = system: Caov-3 cell line; assay: cells; assay type: functional, cell-based; details: Homo sapiens;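 further: cell growth inhibition read out by a viability assay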
Description: SANGER: Inhibition of human Caov-3 cell growth in a cell viability assay.

[32] = system: LB647-SCLC; assay: cells; assay type: functional, cell-based; details: Homo sapiens;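 further: cell growth inhibition, read out by a viability assay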
Description: SANGER: Inhibition of human LB647-SCLC cell growth in a cell viability assay.

[33] = system: NCI-H719; assay: cells; assay type: functional, cell-based; details: Homo sapiens;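 further: growth inhibition of the cultured cell line, read out with a viability assay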
Description: SANGER: Inhibition of human NCI-H719 cell growth in a cell viability assay.

[34] = system: SNU-475; assay: cells; assay type: functional, cell-based; details: Homo sapiens
Description: SANGER: Inhibition of human SNU-475 cell growth in a cell viability assay.

[35] = system: KMS-12-PE; assay: cells; assay type: functional, cell-based; details: Homo sapiens;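 further: growth inhibition of human KMS-12-PE cells, measured with a cell viability assay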
Description: SANGER: Inhibition of human KMS-12-PE cell growth in a cell viability assay.

[36] = system: NCI-H1417; assay: cells; assay type: functional, cell-based; details: Homo sapiens;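 further: human NCI-H1417 cells, growth inhibition determined with a cell viability readout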
Description: SANGER: Inhibition of human NCI-H1417 cell growth in a cell viability assay.

[37] = system: SU-DHL-1; assay: SANGER: Inhibition of human SU-DHL-1 cell growth in a cell viability assay.; assay type: functional, cell-based
[38] = system: MDA-MB-468; assay: cells; assay type: functional, cell-based; details: Homo sapiens
Description: SANGER: Inhibition of human MDA-MB-468 cell growth in a cell viability assay.

[39] = system: CCF-STTG1; assay: cells; assay type: functional, cell-based; details: Homo sapiens;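 further: growth inhibition of human CCF-STTG1 cells, determined with a cell viability read-out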
Description: SANGER: Inhibition of human CCF-STTG1 cell growth in a cell viability assay.

[40] = system: NCI-H187; assay: cells; assay type: functional, cell-based; details: Homo sapiens;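 further: growth inhibition of NCI-H187 cells, read out as cell viability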
Description: SANGER: Inhibition of human NCI-H187 cell growth in a cell viability assay.

[41] = system: CESS; assay: SANGER: Inhibition of human CESS cell growth in a cell viability assay.; assay type: functional, cell-based
[42] = system: IPC-298; assay: SANGER: Inhibition of human IPC-298 cell growth in a cell viability assay.; assay type: functional, cell-based
[43] = system: DG-75; assay: cells; assay type: functional, cell-based; details: Homo sapiens;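 further: growth inhibition of DG-75 cells, read out with a cell viability assay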
Description: SANGER: Inhibition of human DG-75 cell growth in a cell viability assay.

[44] = system: NCI-H838; assay: cells; assay type: functional, cell-based; details: Homo sapiens;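 further: growth inhibition of human NCI-H838 cells, read out by a cell viability assay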
Description: SANGER: Inhibition of human NCI-H838 cell growth in a cell viability assay.

[45] = system: EW-7; assay: SANGER: Inhibition of human EW-7 cell growth in a cell viability assay.; assay type: functional, cell-based; details: Homo sapiens, EW-7
[46] = system: HCC1143; assay: cells; assay type: functional, cell-based; details: Homo sapiens;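 further: growth inhibition of human HCC1143 cells, read out with a cell viability assay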
Description: SANGER: Inhibition of human HCC1143 cell growth in a cell viability assay.

[47] = system: CPC-N; assay: cells; assay type: functional, cell-based; details: Homo sapiens;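 further: growth inhibition of CPC-N cells, with a cell viability assay as the readout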
Description: SANGER: Inhibition of human CPC-N cell growth in a cell viability assay.

[48] = system: TUR; assay: cells; assay type: functional, cell-based; details: Homo sapiens;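 further: growth inhibition of human TUR cells, read out with a cell viability assay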
Description: SANGER: Inhibition of human TUR cell growth in a cell viability assay.

[49] = system: SK-MM-2; assay: cells; assay type: functional, cell-based; details: Homo sapiens;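 further: growth inhibition of human SK-MM-2 cells, read out with a cell viability assay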
Description: SANGER: Inhibition of human SK-MM-2 cell growth in a cell viability assay.

[50] = system: MDA-MB-134-VI; assay: cells; assay type: functional, cell-based; details: Homo sapiens
Description: SANGER: Inhibition of human MDA-MB-134-VI cell growth in a cell viability assay.

[51] = system: DV-90; assay: cells; assay type: functional, cell-based; details: Homo sapiens;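 further: Read-out is a viability assay, with IC50 reflecting the drop in DV-90 cell growth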
Description: SANGER: Inhibition of human DV-90 cell growth in a cell viability assay.

[52] = system: EFE-184; assay: cells; assay type: functional, cell-based; details: Homo sapiens
Description: SANGER: Inhibition of human EFE-184 cell growth in a cell viability assay.

[53] = system: NCI-H1618; assay: cells; assay type: functional, cell-based; details: Homo sapiens;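 further: growth inhibition of human NCI-H1618 cells, measured by a cell viability assay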
Description: SANGER: Inhibition of human NCI-H1618 cell growth in a cell viability assay.

[54] = system: SCLC-21H; assay: cells; assay type: functional, cell-based; details: Homo sapiens;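 further: growth inhibition of cultured human SCLC-21H cells, read out with a cell viability assay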
Description: SANGER: Inhibition of human SCLC-21H cell growth in a cell viability assay.

[55] = system: NCI-H1734; assay: cells; assay type: functional, cell-based; details: Homo sapiens;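 further: growth inhibition of human NCI-H1734 cells, read out with a cell viability assay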
Description: SANGER: Inhibition of human NCI-H1734 cell growth in a cell viability assay.

[56] = system: U-698-M; assay: cells; assay type: functional, cell-based; details: Homo sapiens
Description: SANGER: Inhibition of human U-698-M cell growth in a cell viability assay.

COc1ccc(-c2ccc3c(N4CCOC[C@@H]4C)nc(N4CCOC[C@@H]4C)nc3n2)cc1CO [AZD-8055]
IC50 [1]: 407 nM
IC50 [2]: > 2000 nM
IC50 [3]: 586 nM
IC50 [4]: 684 nM
IC50 [5]: > 2000 nM
IC50 [6]: > 2000 nM
IC50 [7]: 170 nM
IC50 [8]: > 2000 nM
IC50 [9]: 630 nM
IC50 [10]: > 2000 nM
IC50 [11]: 1380 nM

O=c1cc(-c2cccc3c2Sc2ccccc2S3)oc(N2CCOCC2)c1 [KU-55933]
IC50 [1]: > 10000 nM
IC50 [2]: > 10000 nM
IC50 [3]: > 10000 nM
IC50 [4]: > 10000 nM
IC50 [5]: > 10000 nM
IC50 [6]: > 10000 nM
IC50 [7]: > 10000 nM
IC50 [8]: > 10000 nM
IC50 [9]: > 10000 nM
IC50 [10]: > 10000 nM
IC50 [11]: > 10000 nM
IC50 [12]: > 10000 nM

COc1ccc(C2=N[C@@H](c3ccc(Cl)cc3)[C@@H](c3ccc(Cl)cc3)N2C(=O)N2CCNC(=O)C2)c(OC(C)C)c1 [NUTLIN-3]
IC50 [1]: > 8000 nM
IC50 [2]: > 8000 nM
IC50 [3]: > 8000 nM
IC50 [4]: > 8000 nM
IC50 [5]: > 8000 nM
IC50 [6]: 6390 nM
IC50 [7]: > 8000 nM
IC50 [8]: > 8000 nM
IC50 [9]: > 8000 nM
IC50 [10]: > 8000 nM
IC50 [11]: 2940 nM

CN(c1ncccc1CNc1nc(Nc2ccc3c(c2)CC(=O)N3)ncc1C(F)(F)F)S(C)(=O)=O [PF-00562271]
IC50 [13]: > 2560 nM
IC50 [14]: > 2560 nM
IC50 [1]: > 2560 nM
IC50 [15]: > 2560 nM
IC50 [16]: 2410 nM
IC50 [17]: > 2560 nM
IC50 [18]: > 2560 nM
IC50 [19]: 1310 nM
IC50 [20]: > 2560 nM
IC50 [21]: > 2560 nM
IC50 [22]: > 2560 nM
IC50 [5]: > 2560 nM
IC50 [23]: > 2560 nM
IC50 [24]: > 2560 nM
IC50 [25]: 2260 nM
IC50 [26]: > 2560 nM
IC50 [27]: > 2560 nM
IC50 [28]: > 2560 nM
IC50 [29]: > 2560 nM
IC50 [30]: > 2560 nM
IC50 [31]: > 2560 nM
IC50 [32]: > 2560 nM
IC50 [33]: > 2560 nM
IC50 [34]: > 2560 nM
IC50 [35]: > 2560 nM
IC50 [36]: > 2560 nM
IC50 [37]: > 2560 nM
IC50 [38]: 1910 nM
IC50 [39]: > 2560 nM
IC50 [40]: > 2560 nM
IC50 [41]: > 2560 nM
IC50 [9]: > 2560 nM
IC50 [42]: > 2560 nM
IC50 [43]: > 2560 nM
IC50 [44]: > 2560 nM
IC50 [45]: > 2560 nM
IC50 [46]: > 2560 nM
IC50 [47]: > 2560 nM
IC50 [48]: > 2560 nM
IC50 [49]: > 2560 nM
IC50 [10]: > 2560 nM
IC50 [50]: > 2560 nM
IC50 [51]: > 2560 nM
IC50 [52]: > 2560 nM
IC50 [53]: > 2560 nM
IC50 [54]: > 2560 nM
IC50 [55]: > 2560 nM
IC50 [56]: > 2560 nM
IC50 [12]: > 2560 nM

CCC1=C[C@@H]2CN(C1)Cc1c([nH]c3ccccc13)[C@@](C(=O)OC)(c1cc3c(cc1OC)N(C)[C@H]1[C@@](O)(C(=O)OC)[C@H](OC(C)=O)[C@]4(CC)C=CCN5CC[C@]31[C@@H]54)C2 [VINORELBINE]
IC50 [13]: > 64 nM
IC50 [14]: > 64 nM
IC50 [1]: 7.09 nM
IC50 [15]: > 64 nM
IC50 [16]: 20.6 nM
IC50 [17]: > 64 nM
IC50 [18]: 8.5 nM
IC50 [19]: 3.11 nM
IC50 [20]: 5.84 nM
IC50 [21]: > 64 nM
IC50 [22]: > 64 nM
IC50 [5]: 45.5 nM
IC50 [23]: 39 nM
IC50 [24]: 3.88 nM
IC50 [25]: 9.69 nM
IC50 [26]: > 64 nM
IC50 [27]: 23 nM
IC50 [28]: > 64 nM
IC50 [29]: 3.1 nM
IC50 [30]: 34.9 nM
IC50 [31]: > 64 nM
IC50 [32]: 6.89 nM
IC50 [33]: > 64 nM
IC50 [34]: > 64 nM
IC50 [35]: 60.1 nM
IC50 [36]: 24.1 nM
IC50 [37]: 9.45 nM
IC50 [38]: 7.14 nM
IC50 [39]: 8.37 nM
IC50 [40]: 14 nM
IC50 [41]: 5.04 nM
IC50 [9]: 0.535 nM
IC50 [42]: 36.6 nM
IC50 [43]: > 64 nM
IC50 [44]: 16 nM
IC50 [45]: 16.7 nM
IC50 [46]: > 64 nM
IC50 [47]: > 64 nM
IC50 [48]: 7.2 nM
IC50 [49]: > 64 nM
IC50 [10]: 29.3 nM
IC50 [50]: > 64 nM
IC50 [51]: 34.5 nM
IC50 [52]: > 64 nM
IC50 [53]: > 64 nM
IC50 [54]: > 64 nM
IC50 [55]: 14.1 nM
IC50 [56]: 12.2 nM
IC50 [12]: 3.53 nM
